Source: PubChem BioAssay (NCI)
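Protocol summary: plate cells (96-well), add compound at 5 concentrations, incubate 48 h, interpolate endpoints linearly. GI50: concentration for 50% inhibition of growth. TGI is the concentration that stops growth completely.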

Columns and labels:
Experiment in all cases: NCI anticancer screen, dose series, 48 h
[1] = test system: COLO 205 colon
[2] = test system: IGROV1 ovarian
[3] = test system: K-562 leukemia
[4] = test system: NCI-H23 lung
[5] = test system: NCI-H460 lung
[6] = test system: OVCAR-4 ovarian
[7] = test system: SF-295 CNS
[8] = test system: SK-MEL-5 melanoma
[9] = test system: TK-10 renal
[10] = test system: MOLT-4 leukemia

SMILES | GI50 [1] [µM] | TGI [1] [µM] | GI50 [2] [µM] | TGI [2] [µM] | GI50 [3] [µM] | TGI [3] [µM] | GI50 [4] [µM] | TGI [4] [µM] | GI50 [5] [µM] | TGI [5] [µM] | GI50 [6] [µM] | TGI [6] [µM] | GI50 [7] [µM] | TGI [7] [µM] | GI50 [8] [µM] | TGI [8] [µM] | GI50 [9] [µM] | TGI [9] [µM] | TGI [10] [µM]
CCSc1nc(N2CCCCC2)c2cn[nH]c2n1 | 21.3 | 56.8 | 47 | > 100 | 38 | > 100 | 93.2 | > 100 | 20.4 | 76.5 | 88.3 | > 100 | 48.2 | > 100 | 16.6 | 32.8 | 36.8 | > 100 | –
CC(=O)NC(CCCCNC(=O)OC(C)(C)C)C(=O)O (stereo not given) | – | > 100 | – | > 100 | – | > 100 | – | – | – | > 100 | – | > 100 | – | > 100 | – | > 100 | – | > 100 | > 100
CCN(CC)CCC(=O)c1ccccc1 | – | – | – | > 100 | – | – | – | 45.6 | – | 97.8 | – | 40.5 | – | – | – | > 100 | – | 43.4 | 42.2
O=C(O)/C=C/c1cnc[nH]1 | – | > 500 | – | > 500 | – | > 500 | – | > 500 | – | > 500 | – | > 500 | – | > 500 | – | > 232 | – | – | > 500
COc1cccc(C2C(C(=O)O)=C(CO)Oc3cc4c(cc32)OCO4)c1 (stereo not given) | – | > 100 | – | > 100 | – | > 100 | – | > 100 | – | > 100 | – | – | – | > 100 | – | > 100 | – | > 100 | > 100
CCOc1ccc(N=Nc2ccc3oc(=O)c(/C(C)=N\NC(=O)CC(=O)Nc4ccc(Cl)cc4)cc3c2)cc1 | – | > 100 | – | 45.4 | – | 70.6 | – | 41.9 | – | – | – | 37.9 | – | 34.3 | – | 38.7 | – | 35.5 | 28.8
CCOC(=O)C1(C(=O)OCC)CSC1 | – | > 100 | – | – | – | > 100 | – | > 100 | – | 1.74 | – | > 100 | – | > 100 | – | > 100 | – | > 100 | > 100
